Measurements published in ChEMBL document CHEMBL1133905, “Novel lipase-catalysed enantioselective deacetylation of (+/-)-5-acetoxy-3-(4-fluorophenyl)-2-phenylisoxazolidine” (2001).
Values after ≈ are worked out from the molar mass of the structure shown.

Tests used:
[1] = system: Mycobacterium tuberculosis; experiment: Inhibition against Mycobacterium tuberculosis; format: functional
[2] = system: Mycobacterium tuberculosis; experiment: Inhibition against Mycobacterium tuberculosis at 6.25 ug/mL; format: functional

`CC(=O)OC1CC(c2ccc(F)cc2)N(c2ccccc2)O1` (racemic) showed an MIC [1] of 6.25 µg/mL (≈ 20.7 µM) and an inhibition at 6.25 µg/mL [2] of 78%.
